The IC50 is the point on the concentration scale where inhibition reaches its midpoint. Read a high IC50 as weaker potency in that assay.

The values that follow come from patent US20260297042A1, “BIARYLAMIDE DERIVATIVES AND THEIR USE AS PKMYT1 INHIBITORS” (CANCER RESEARCH TECHNOLOGY LIMITED, priority 2023, published 2026).

The subject of one test is KYSE-30 cells. The test can be described thus: Cancer cell line proliferation assay, ATP-based cell viability (Cell Titre Glow), KYSE-30 (normal CCNE1). As to conditions: Homo sapiens, KYSE-30 cells (normal CCNE1), concentration that achieves 50% cell growth proliferation inhibition, read-out: KYSE30 Gl50. The method, boiled down:
(§1)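 Sensitivity to PKMYT1 inhibitors was measured by ATP-based luminescence (CellTiter-Glo) as the proliferation endpoint. GI50, the concentration giving 50% growth inhibition, was estimated from curve fits.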

The target of test [1] is T1, Cellular PKMYT1 Biomarker CDK1 pT14 (Homo sapiens, UniProt Q99640).
T1 construct: read-out CDK1 phospho-T14 immunoblot
T1 sequence (Q99640 1-499): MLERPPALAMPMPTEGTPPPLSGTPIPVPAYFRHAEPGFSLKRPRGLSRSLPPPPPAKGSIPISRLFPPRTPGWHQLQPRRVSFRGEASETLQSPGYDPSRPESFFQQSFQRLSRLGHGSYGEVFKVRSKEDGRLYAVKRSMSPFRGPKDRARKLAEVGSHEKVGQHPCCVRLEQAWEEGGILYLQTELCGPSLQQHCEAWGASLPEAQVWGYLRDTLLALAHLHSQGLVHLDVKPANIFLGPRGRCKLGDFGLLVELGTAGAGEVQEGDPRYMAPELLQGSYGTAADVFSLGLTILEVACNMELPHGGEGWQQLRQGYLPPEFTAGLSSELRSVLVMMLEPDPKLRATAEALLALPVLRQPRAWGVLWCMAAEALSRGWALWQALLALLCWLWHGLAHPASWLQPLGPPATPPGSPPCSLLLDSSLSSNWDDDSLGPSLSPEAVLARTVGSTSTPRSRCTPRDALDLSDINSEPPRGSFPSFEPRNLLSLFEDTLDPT
The test can be described thus: Inhibition of cellular PKMYT1 biomarker CDK1 pT14 in OVCAR 3 cells (immunoblot). It counts as cell-based. The following applies: 20 hours incubation. An outline of the steps:
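Confluent OVCAR 3 cells treated with a compound concentration range for 20 h at 37 °C. Lysates analysed by automated capillary immunoblot for CDK1 phospho-T14, with vinculin, fluorescence detection; IC50 by regression.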
For orientation: In western blotting, separated proteins are transferred to a membrane and probed.

The target in a further test is T2, Human PKMYT1 (Homo sapiens, UniProt Q99640).
T2 construct: Human PKMYT1 75-362 was cloned as a TEV cleavable 6xHis fusion; 6xHis (TEV cleavable) (cleaved yes); made in house; host or cells: bacterial cells
T2 sequence (Q99640 75-362): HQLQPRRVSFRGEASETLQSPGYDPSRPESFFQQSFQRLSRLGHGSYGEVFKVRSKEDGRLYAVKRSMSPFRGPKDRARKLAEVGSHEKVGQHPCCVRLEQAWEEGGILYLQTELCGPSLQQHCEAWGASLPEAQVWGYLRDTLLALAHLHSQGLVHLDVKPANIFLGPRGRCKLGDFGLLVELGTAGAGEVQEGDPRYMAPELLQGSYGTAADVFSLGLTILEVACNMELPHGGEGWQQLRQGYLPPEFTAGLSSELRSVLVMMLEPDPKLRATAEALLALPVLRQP
As to the kind of experiment: PKMYT1 biochemical ADP-Glo enzymatic assay. As to conditions: ADP-Glo. The method, boiled down:
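Intrinsic ATPase activity of E. coli-expressed, tag-cleaved human PKMYT1 kinase domain (75-362), 15 nM, with 500 µM ATP in HEPES pH 7.5/MgCl2/EGTA/Brij-35, 1% DMSO, 60 min at 26 °C. ADP formed was read by ADP-Glo Max luminescence; IC50 from 10-point, 3-fold dilution curves.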
In general terms: In ADP-Glo the light output rises with the ADP produced.

In a further test the test system is OVCAR 3 cells. As to the kind of experiment: Cancer cell line proliferation assay, ATP-based cell viability (Cell Titre Glow), OVCAR 3 (CCNE1-amplified). The following applies: KYSE30 (normal CCNE1) GI50 vs. OVCAR 3 (CCNE1-amplified) GI50. The method, boiled down:
as §1

For the next test, the target named is T3, WEE1 (Homo sapiens, UniProt P30291).
T3 construct: purchased Thermo Fisher PR7373A
The test can be described thus: Selectivity versus WEE1 assay (ADP-Glo enzymatic assay). In kind it is biochemical. As to conditions: for IC50: ADP-Glo; for PKMYT1 vs. WEE1 selectivity: fold difference in selectivity for PKMYT1 over WEE1. An outline of the steps:
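Kinase at 15 nM final in 50 mM HEPES pH 7.5, 10 mM MgCl2, 1 mM EGTA, 0.01% Brij-35, 1% DMSO was started with 30 µM ATP and run 60 min at 26° C. ADP formed was read by ADP-Glo luminescence; IC50 came from dose-response curves.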

Where [2] appears, read: 15 nM PKMYT1 kinase domain, 500 µM ATP, 60 minutes at 26° C., banded.
Setting [3] is: 15 nM WEE1, 60 minutes at 26° C., banded.
[4] abbreviates: banded, ">N" = at least in this band but could be higher.

T3 sequence (P30291 whole entry): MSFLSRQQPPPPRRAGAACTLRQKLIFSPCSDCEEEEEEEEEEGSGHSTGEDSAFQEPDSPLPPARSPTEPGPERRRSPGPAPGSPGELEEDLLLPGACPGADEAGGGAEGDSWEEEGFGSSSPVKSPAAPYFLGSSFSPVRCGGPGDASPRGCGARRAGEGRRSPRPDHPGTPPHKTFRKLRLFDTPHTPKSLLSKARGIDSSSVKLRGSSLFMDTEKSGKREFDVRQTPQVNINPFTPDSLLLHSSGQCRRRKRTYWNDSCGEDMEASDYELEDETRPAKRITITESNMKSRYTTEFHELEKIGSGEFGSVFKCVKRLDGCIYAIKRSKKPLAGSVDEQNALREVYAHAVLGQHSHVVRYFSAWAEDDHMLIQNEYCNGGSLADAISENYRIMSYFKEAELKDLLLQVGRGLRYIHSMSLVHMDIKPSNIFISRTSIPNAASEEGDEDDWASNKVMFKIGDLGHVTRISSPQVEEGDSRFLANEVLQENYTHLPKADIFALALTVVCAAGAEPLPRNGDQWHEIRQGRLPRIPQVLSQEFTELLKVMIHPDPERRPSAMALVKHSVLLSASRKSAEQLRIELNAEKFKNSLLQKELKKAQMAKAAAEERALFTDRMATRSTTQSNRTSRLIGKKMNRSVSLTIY

`Cc1ccc(O)c(C)c1NC(=O)c1cnc(Nc2c3cccnc3nn2C)s1` [BAA-243, N-(3-hydroxy-2,6-dimethylphenyl)-2-((2-methyl-2H-pyrazolo[3,4-b]pyridin-3-yl)amino)thiazole-5-carboxamide]: the GI50 in the test with KYSE-30 cells is > 5000 nM. The IC50 is < 100 nM in test [1], < 50 nM on Human PKMYT1 (setting [2]) and 1000 to 11000 nM on WEE1 (setting [3]). Besides, in the test with OVCAR 3 cells, the “Selectivity ratio KYSE30 Gl50 vs. OVCAR3 Gl50” value is reported as “X (3-20 fold)”. Moreover, the “PKMYT1 vs. WEE1 selectivity” value at WEE1 (setting [4]) is “X (100-<1000 fold)”.
For the molecule `CCN(CCOC)C(=O)Cn1cc(C)c(Nc2ncc(C(=O)Nc3c(C)ccc(O)c3C)s2)n1` [BAA-550, 2-((1-(2-(ethyl(2-methoxyethyl)amino)-2-oxoethyl)-4-methyl-1H-pyrazol-3-yl)amino)-N-(3-hydroxy-2,6-dimethylphenyl)thiazole-5-carboxamide], in the test on KYSE-30 cells, the GI50 is > 5000 nM. In addition, the half-inhibitory concentration (IC50) in test [1] is < 100 nM; on Human PKMYT1 (PKMYT1 kinase domain 15 nM, banded values) it was < 50 nM; against WEE1 (WEE1 15 nM, banded values), 1000 to 11000 nM. The “Selectivity ratio KYSE30 Gl50 vs. OVCAR3 Gl50” value with OVCAR 3 cells is “Y (>20 fold)”. The “PKMYT1 vs. WEE1 selectivity” value at WEE1 (banded) was “X (100-<1000 fold)”.
As for `Cc1cc(Nc2ncc(C(=O)Nc3c(C)ccc(O)c3C)s2)nc(OCC(F)(F)F)n1` [BAA-319, N-(3-hydroxy-2,6-dimethylphenyl)-2-((6-methyl-2-(2,2,2-trifluoroethoxy)pyrimidin-4-yl)amino)thiazole-5-carboxamide], the GI50 in the test on KYSE-30 cells is 500 to 5000 nM. The IC50 was < 100 nM in test [1], < 50 nM against Human PKMYT1 (setting [2]) and > 11000 nM against WEE1 (setting [3]). The “Selectivity ratio KYSE30 Gl50 vs. OVCAR3 Gl50” value in the test with OVCAR 3 cells is reported as “Y (>20 fold)”. Further, the “PKMYT1 vs. WEE1 selectivity” value at WEE1 (setting [4]) is given as “Y (1000-5000 fold)”.
Take `Cc1ccc(NC(=O)C2CCOCC2)nc1Nc1ncc(C(=O)Nc2c(C)ccc(O)c2C)s1.Cl` [BAA-331, N-(3-hydroxy-2,6-dimethylphenyl)-2-((3-methyl-6-(tetrahydro-2H-pyran-4-carboxamido)pyridin-2-yl)amino)thiazole-5-carboxamide hydrochloride]: the GI50 with KYSE-30 cells is 500 to 5000 nM. Moreover, the results for the IC50 (in test [1]; against Human PKMYT1 (setting [2]); against WEE1 (setting [3])) were < 100 nM, < 50 nM and > 11000 nM, respectively. The “Selectivity ratio KYSE30 Gl50 vs. OVCAR3 Gl50” value with OVCAR 3 cells is reported as “Y (>20 fold)”. For the same molecule, the “PKMYT1 vs. WEE1 selectivity” value on WEE1 (setting [4]) was “Y (1000-5000 fold)”.
With `COc1cc(-c2cccc(Nc3ncc(C(=O)Nc4c(C)ccc(O)c4C)s3)n2)cc(OC)c1OC` [BAA-317, N-(3-hydroxy-2,6-dimethylphenyl)-2-((6-(3,4,5-trimethoxyphenyl)pyridin-2-yl)amino)thiazole-5-carboxamide], the GI50 in the test with KYSE-30 cells lay in the range of 500 to 5000 nM. Besides, the IC50 in test [1] was < 100 nM; on Human PKMYT1 (setting [2]), < 50 nM; on WEE1 (setting [3]), > 11000 nM. The “Selectivity ratio KYSE30 Gl50 vs. OVCAR3 Gl50” value in the test with OVCAR 3 cells is recorded as “Y (>20 fold)”. For the same molecule, on WEE1 (setting [4]), the “PKMYT1 vs. WEE1 selectivity” value was “Y (1000-5000 fold)”.
For the molecule `Cc1ccc(NC(=O)C(C)C)nc1Nc1ncc(C(=O)Nc2c(C)ccc(O)c2C)s1.Cl` [BAA-332, N-(3-hydroxy-2,6-dimethylphenyl)-2-((6-isobutyramido-3-methylpyridin-2-yl)amino)thiazole-5-carboxamide hydrochloride], the GI50 with KYSE-30 cells was in the range of 500 to 5000 nM. Besides, the IC50 in test [1] is < 100 nM; against Human PKMYT1 (setting [2]), < 50 nM; against WEE1 (setting [3]), > 11000 nM. Also, the “Selectivity ratio KYSE30 Gl50 vs. OVCAR3 Gl50” value in the test with OVCAR 3 cells is “Y (>20 fold)”. Moreover, the “PKMYT1 vs. WEE1 selectivity” value on WEE1 (setting [4]) is reported as “X (100-<1000 fold)”.
On to `Cc1ccc(N)nc1Nc1ncc(C(=O)Nc2c(C)ccc(O)c2C)s1` [BAA-337, 2-((6-amino-3-methylpyridin-2-yl)amino)-N-(3-hydroxy-2,6-dimethylphenyl)thiazole-5-carboxamide], for which the GI50 with KYSE-30 cells is 500 to 5000 nM. Besides, the half-maximal inhibitory concentration (IC50) in test [1] was < 100 nM; at Human PKMYT1 (setting [2]), < 50 nM; against WEE1 (setting [3]), 1000 to 11000 nM. Further, the “Selectivity ratio KYSE30 Gl50 vs. OVCAR3 Gl50” value in the test on OVCAR 3 cells is “Y (>20 fold)”. Further, the “PKMYT1 vs. WEE1 selectivity” value at WEE1 (setting [4]) is listed as “X (100-<1000 fold)”.
